Laboratory results reported in article PMC6272685, “Docking and Antiherpetic Activity of 2-Aminobenzo[de]-isoquinoline-1,3-diones” (Molecules, 2015).
Values after ≈ are worked out from the molar mass of the structure shown.

system: HSV-1; assay: cytopathic effect inhibition assay against HSV-1 in Vero cells; format: cell-based, herpes simplex virus 1 (GHSV-UL46); details: Human alphaherpesvirus 1, Vero, 48 h, read-out: HSV-1 EC50; as to activity class in terms of SI-values (HSV-1): key: inactive (SI < 2); active (SI ≥ 2)
Protocol: (§1) Vero cells (derived from the kidney of a normal African green monkey) were obtained from the American Type Culture Collection (ATCC, Manassas, VA, USA). The viral strains used were GHSV-UL46 for HSV-1 and the G strain for HSV-2. The Vero cells were propagated in Dulbecco’s modified Eagle’s medium (DMEM) supplemented with 10% heat-inactivated foetal bovine serum (FBS), 1% L-glutamine, HEPES buffer and 50 µg/mL gentamycin. All cells were maintained at 37 °C in a humidified atmosphere with 5% CO2 and were subcultured two times a week.
(§2) The antiviral screening was performed using a cytopathic effect inhibition assay at the Regional Center for Mycology and Biotechnology (RCMB, Al-Azhar University, Cairo, Egypt). This assay was selected to show specific inhibition of a biological function, that is, a cytopathic effect in susceptible mammalian cells. In brief, monolayers of 10,000 Vero cells adhering at the bottom of the wells in a 96-well microtiter plate were incubated for 24 h at 37 °C in a humidified incubator with 5% CO2. The plates were washed with fresh DMEM and challenged with 10^4 doses of herpes simplex 1 or 2 virus, and then the cultures were simultaneously treated with two-fold serial dilutions of the tested compound, starting from 500 µg/mL and going up to about 2 µg/mL (500, 250, 125, 62.5, …, 1.95 µg/mL) in a fresh maintenance medium; following this, they were incubated at 37 °C for 48 h. An infection control, as well as an untreated Vero cell control were made in the absence of tested compounds. […] Antiviral activity was determined by the inhibition of the cytopathic effect compared to a control, that is, the protection offered by the tested compound to the cells was scored. Three independent experiments were assessed, each containing four replicates per treatment.
(§3) After the incubation period, the media was aspirated, and then the cells were stained with a 1% crystal violet solution for 30 min. Thereafter, all excess stain was removed by rinsing the plates with tap water. The plates were allowed to dry, and then glacial acetic acid (30%) was added to all wells and mixed thoroughly. The absorbance of the plates was measured after gentle shaking on a microplate reader (Tecan Inc., Morrisville, NC, USA), at 590 nm. The viral inhibition rate was calculated as follows: [(ODtv − ODcv)/(ODcd − ODcv)] × 100% where ODtv, ODcv and ODcd indicate the absorbance of the tested compounds with virus-infected cells, the absorbance of the virus control and the absorbance of the cell control, respectively.
EC50 values were determined directly from the curve obtained by plotting the inhibition of the virus yield against the concentration of the samples. […] This index is referred to as a therapeutic index, and it was also used to determine whether a compound warranted further study.

SMILES | EC50
NN1C(=O)c2cccc3cccc(c23)C1=O [Parent, 2-amino-1H-benzo[de]isoquinoline-1,3-dione] | > 500 µg/mL
Nc1nc2c(ncn2COCCO)c(=O)[nH]1 [Acyclovir, reference compound] | 1.8 ± 0.2 µg/mL (≈ 7.99 µM)

same assay, conditions: Vero cells, 48 h, cytopathic effect inhibition

SMILES | HSV-1 EC50
O=C1c2cccc3cccc(c23)C(=O)N1n1c(=O)c2cc3c(=O)oc(=O)c3cc2c1=O [Compound 23] | 176 ± 2.4 µg/mL
COc1cc(C=NN2C(=O)c3cccc4cccc(c34)C2=O)ccc1O [Compound 9] | 78.3 ± 1.5 µg/mL
COc1ccccc1C=NN1C(=O)c2cccc3cccc(c23)C1=O [Compound 4] | 189 ± 3.2 µg/mL
O=C1c2cccc3cccc(c23)C(=O)N1N=Cc1ccc(Cl)cc1Cl [Compound 11] | >500 µg/mL
COc1ccc(C=NN2C(=O)c3cccc4cccc(c34)C2=O)c(OC)c1 [Compound 10] | 149 ± 5.3 µg/mL
C=CCNC(=S)NN1C(=O)c2cccc3cccc(c23)C1=O [Compound 16] | 17.8 ± 1.4 µg/mL
O=C1c2cccc3cccc(c23)C(=O)N1N1C(=O)c2cccc3cccc(c23)C1=O [Compound 22] | 74.6 ± 3.4 µg/mL
O=C1c2cccc3cccc(c23)C(=O)N1NC(=S)NC1CCCCC1 [Compound 18] | 319 ± 3.7 µg/mL
O=C1CCC(=O)N1N1C(=O)c2cccc3cccc(c23)C1=O [Compound 19] | >500 µg/mL

same assay, conditions: in comparison with compounds 14–16

SMILES | antiviral activity against HSV-1 in words
O=C1c2cccc3cccc(c23)C(=O)N1n1c(=O)c2cc3c(=O)oc(=O)c3cc2c1=O [Compound 23] | low activity
COc1cc(C=NN2C(=O)c3cccc4cccc(c34)C2=O)ccc1O [Compound 9] | good antiviral effect
COc1ccc(C=NN2C(=O)c3cccc4cccc(c34)C2=O)c(OC)c1 [Compound 10] | low activity
C=CCNC(=S)NN1C(=O)c2cccc3cccc(c23)C1=O [Compound 16] | highest effects
O=C1c2cccc3cccc(c23)C(=O)N1N1C(=O)c2cccc3cccc(c23)C1=O [Compound 22] | good antiviral effect
O=C1c2cccc3cccc(c23)C(=O)N1NC(=S)NC1CCCCC1 [Compound 18] | low activity

same assay, conditions: ratio of CC50 to EC50

SMILES | HSV-1 SI
O=C1c2cccc3cccc(c23)C(=O)N1n1c(=O)c2cc3c(=O)oc(=O)c3cc2c1=O [Compound 23] | 2.3
COc1cc(C=NN2C(=O)c3cccc4cccc(c34)C2=O)ccc1O [Compound 9] | 3.0
COc1ccccc1C=NN1C(=O)c2cccc3cccc(c23)C1=O [Compound 4] | 2.6
COc1ccc(C=NN2C(=O)c3cccc4cccc(c34)C2=O)c(OC)c1 [Compound 10] | 2.6
C=CCNC(=S)NN1C(=O)c2cccc3cccc(c23)C1=O [Compound 16] | 5.4
O=C1c2cccc3cccc(c23)C(=O)N1N1C(=O)c2cccc3cccc(c23)C1=O [Compound 22] | 7.5
O=C1c2cccc3cccc(c23)C(=O)N1NC(=S)NC1CCCCC1 [Compound 18] | 1.5

same assay, conditions: virus not named; agrees with HSV-1 SI of Table 2

SMILES | activity class in terms of SI-values (HSV-1)
COc1cc(C=NN2C(=O)c3cccc4cccc(c34)C2=O)ccc1O [Compound 9] | active
COc1ccccc1C=NN1C(=O)c2cccc3cccc(c23)C1=O [Compound 4] | active
COc1ccc(C=NN2C(=O)c3cccc4cccc(c34)C2=O)c(OC)c1 [Compound 10] | active
C=CCNC(=S)NN1C(=O)c2cccc3cccc(c23)C1=O [Compound 16] | active

system: not listed separately; assay: cytotoxicity evaluation using viability assay (crystal violet); format: cell-based, African green monkey; details: African green monkey, Vero cells
Protocol: as §1
(§4) The Vero cell lines in the cytotoxicity assay were seeded in 96-well plates at a cell concentration of 1 × 10^4 cells per well in 100 µL of the growth medium. Fresh medium containing different concentrations of the tested sample was added after 24 h of seeding. Serial two-fold dilutions of the tested compound were added to confluent cell monolayers dispensed into 96-well, flat-bottomed microtiter plates (Falcon, Jersey, NJ, USA) using a multichannel pipette. The microtiter plates were incubated at 37 °C in a humidified incubator with 5% CO2 for a period of 48 h. Three wells were used for each concentration of the tested sample. Control cells were incubated without test samples and with or without DMSO. The small percentage of DMSO present in the wells (maximal 0.1%) was not found to affect the experiment.
(§5) After the end of the incubation period, the viable cell yield was determined by a colorimetric method. In brief, the process of treatment the media with crystal violet solution and measurement of absorbance at 590 nm using a microplate reader was mentioned above. The absorbance was proportional to the number of surviving cells in the culture plate. All the results were corrected for background absorbance detected in wells without added stain. Treated samples were compared with the cell control in the absence of the tested compounds. All experiments were carried out in triplicate. The cell cytotoxicity effect of each tested compound was calculated.
(§6) Statistics were done using a one-way ANOVA test, and the percentage cell viability was calculated using Microsoft Excel®, as follows: % Cell viability = [(Mean Abscontrol− Mean Abstest metabolite)/Mean Abscontrol] × 100 where Abs equals the absorbance at 590 nm. The CC50 was estimated from graphic plots and the STATA statistical analysis package was used for the drawing of the dose response curve, in order to calculate CC50. Concerning antiviral evaluation, all experiments and data analysis were performed in RCMB, Al-Azhar University, Cairo, Egypt.

SMILES | CC50 at 48 h
NN1C(=O)c2cccc3cccc(c23)C1=O [Parent, 2-amino-1H-benzo[de]isoquinoline-1,3-dione] | 320 ± 24 µg/mL (≈ 1510 µM)
Nc1nc2c(ncn2COCCO)c(=O)[nH]1 [Acyclovir, reference compound] | 600 ± 18 µg/mL (≈ 2660 µM)

system: Vero cells; assay: as above; format: cell-based, African green monkey; details: 48 h
Protocol: as §1, §4, §5, §6

SMILES | CC50
O=C1c2cccc3cccc(c23)C(=O)N1n1c(=O)c2cc3c(=O)oc(=O)c3cc2c1=O [Compound 23] | 412 ± 18 µg/mL (≈ 999 µM)
COc1cc(C=NN2C(=O)c3cccc4cccc(c34)C2=O)ccc1O [Compound 9] | 236 ± 8 µg/mL (≈ 681 µM)
COc1ccccc1C=NN1C(=O)c2cccc3cccc(c23)C1=O [Compound 4] | 486 ± 18 µg/mL (≈ 1470 µM)
O=C1c2cccc3cccc(c23)C(=O)N1N=Cc1ccc(Cl)cc1Cl [Compound 11] | 316 ± 24 µg/mL (≈ 856 µM)
COc1ccc(C=NN2C(=O)c3cccc4cccc(c34)C2=O)c(OC)c1 [Compound 10] | 380 ± 16 µg/mL (≈ 1050 µM)
C=CCNC(=S)NN1C(=O)c2cccc3cccc(c23)C1=O [Compound 16] | 96 ± 12 µg/mL (≈ 308 µM)
O=C1c2cccc3cccc(c23)C(=O)N1N1C(=O)c2cccc3cccc(c23)C1=O [Compound 22] | 560 ± 46 µg/mL (≈ 1430 µM)
O=C1c2cccc3cccc(c23)C(=O)N1NC(=S)NC1CCCCC1 [Compound 18] | 482 ± 14 µg/mL (≈ 1360 µM)
O=C1CCC(=O)N1N1C(=O)c2cccc3cccc(c23)C1=O [Compound 19] | 220 ± 16 µg/mL (≈ 748 µM)

system: HSV-2; assay: cytopathic effect inhibition assay against HSV-2 in Vero cells; format: cell-based, herpes simplex virus 2 (G strain); details: not given; as to activity class in terms of SI-values (HSV-2): key: inactive (SI < 2); active (SI ≥ 2)
Protocol: as §1, §2, §3
EC50 values were determined directly from the curve obtained by plotting the inhibition of the virus yield against the concentration of the samples. The selectivity index (SI) was calculated from the ratio of CC50 to EC50 in order to determine whether each compound had sufficient antiviral activity that exceeded its level of toxicity. This index is referred to as a therapeutic index, and it was also used to determine whether a compound warranted further study.

SMILES | activity class in terms of SI-values (HSV-2)
COc1cc(C=NN2C(=O)c3cccc4cccc(c34)C2=O)ccc1O [Compound 9] | active

same assay, conditions: Human alphaherpesvirus 2, Vero, 48 h, read-out: HSV-2 EC50

SMILES | EC50
NN1C(=O)c2cccc3cccc(c23)C1=O [Parent, 2-amino-1H-benzo[de]isoquinoline-1,3-dione] | > 500 µg/mL

same assay, conditions: Human alphaherpesvirus 2; Vero cells, 48 h, cytopathic effect inhibition; read-out: HSV-2 EC50

SMILES | EC50
Nc1nc2c(ncn2COCCO)c(=O)[nH]1 [Acyclovir, reference compound] | 3.4 ± 0.6 µg/mL (≈ 15.1 µM)

same assay, conditions: Vero cells, 48 h, cytopathic effect inhibition

SMILES | HSV-2 EC50
O=C1c2cccc3cccc(c23)C(=O)N1n1c(=O)c2cc3c(=O)oc(=O)c3cc2c1=O [Compound 23] | >500 µg/mL
COc1cc(C=NN2C(=O)c3cccc4cccc(c34)C2=O)ccc1O [Compound 9] | 108 ± 4.1 µg/mL
COc1ccccc1C=NN1C(=O)c2cccc3cccc(c23)C1=O [Compound 4] | 312 ± 9.6 µg/mL
O=C1c2cccc3cccc(c23)C(=O)N1N=Cc1ccc(Cl)cc1Cl [Compound 11] | >500 µg/mL
COc1ccc(C=NN2C(=O)c3cccc4cccc(c34)C2=O)c(OC)c1 [Compound 10] | 416 ± 8.2 µg/mL
C=CCNC(=S)NN1C(=O)c2cccc3cccc(c23)C1=O [Compound 16] | 292 ± 4.8 µg/mL
O=C1c2cccc3cccc(c23)C(=O)N1N1C(=O)c2cccc3cccc(c23)C1=O [Compound 22] | 428 ± 10.2 µg/mL
O=C1c2cccc3cccc(c23)C(=O)N1NC(=S)NC1CCCCC1 [Compound 18] | >500 µg/mL
O=C1CCC(=O)N1N1C(=O)c2cccc3cccc(c23)C1=O [Compound 19] | >500 µg/mL

same assay, conditions: in comparison with compounds 14–16

SMILES | antiviral activity against HSV-2 in words
COc1ccccc1C=NN1C(=O)c2cccc3cccc(c23)C1=O [Compound 4] | low activity
COc1ccc(C=NN2C(=O)c3cccc4cccc(c34)C2=O)c(OC)c1 [Compound 10] | low activity

same assay, conditions: ratio of CC50 to EC50

SMILES | HSV-2 SI
COc1cc(C=NN2C(=O)c3cccc4cccc(c34)C2=O)ccc1O [Compound 9] | 2.2
COc1ccccc1C=NN1C(=O)c2cccc3cccc(c23)C1=O [Compound 4] | 1.6
COc1ccc(C=NN2C(=O)c3cccc4cccc(c34)C2=O)c(OC)c1 [Compound 10] | 0.9
C=CCNC(=S)NN1C(=O)c2cccc3cccc(c23)C1=O [Compound 16] | 0.3
O=C1c2cccc3cccc(c23)C(=O)N1N1C(=O)c2cccc3cccc(c23)C1=O [Compound 22] | 1.3
